Assay results from patent US20070010489A1 (priority 2002, published 2007).

Each compound was assayed on wild-type HIV-1 strain IIIB (assay: microbe, parasite or virus in culture). Conditions: Human immunodeficiency virus 1, IIIB.
Format: cell-based

`CCOP(=O)(CCN1CCN(CC(NC(=O)OC2COC3OCCC23)C(O)CN(CC(C)C)S(=O)(=O)c2ccc(OC)cc2)CC1)OCC` (stereo not drawn) and `CCOP(=O)(COC1CCN(CC(NC(=O)OC2COC3OCCC23)C(O)CN(CC(C)C)S(=O)(=O)c2ccc(OC)cc2)CC1)OCC` (stereo not drawn) fall in the same range of EC50: 50 to 500 nM for the first, 50 to 500 nM for the second.

`CCOP(=O)(CN1CC=C(CC(NC(=O)OC2COC3OCCC23)C(O)CN(CC(C)C)S(=O)(=O)c2ccc(OC)cc2)CC1)OCC` (stereo not drawn) and `CCOP(=O)(CCC1=CCN(CC(NC(=O)OC2COC3OCCC23)C(O)CN(CC(C)C)S(=O)(=O)c2ccc(OC)cc2)CC1)OCC` (stereo not drawn) cannot be ordered by EC50: under 50 nM for the first, under 50 nM for the second.

First: COc1ccc(S(=O)(=O)N(CC(C)C)CC(O)C(CC2=CCN(CCP(=O)(OC)OC)CC2)NC(=O)OC2COC3OCCC23)cc1 (stereo not drawn)
Second: COc1ccc(S(=O)(=O)N(CC(C)C)CC(O)C(CC2=CCN(CCP(=O)(OCc3ccccc3)OCc3ccccc3)CC2)NC(=O)OC2COC3OCCC23)cc1 (stereo not drawn)
The EC50 of the first is higher: 50 to 500 nM for the first, under 50 nM for the second.

`CCOP(=O)(Cc1ccc(NCC(NC(=O)OC2COC3OCCC23)C(O)CN(CC(C)C)S(=O)(=O)c2ccc(OC)cc2)cc1)OCC` (stereo not drawn) and `CCOP(=O)(CNc1ccc(CC(NC(=O)OC2COC3OCCC23)C(O)CN(CC(C)C)S(=O)(=O)c2ccc(OC)cc2)cc1)OCC` (stereo not drawn) cannot be ordered by EC50: under 50 nM for the first, under 50 nM for the second.

`COc1ccc(S(=O)(=O)N(CC(C)C)CC(O)C(CNc2ccc(CP(=O)(OCc3ccccc3)OCc3ccccc3)cc2)NC(=O)OC2COC3OCCC23)cc1` (stereo not drawn) and `COc1ccc(S(=O)(=O)N(CC(C)C)CC(O)C(Cc2ccc(NCP(=O)(OCc3ccccc3)OCc3ccccc3)cc2)NC(=O)OC2COC3OCCC23)cc1` (stereo not drawn) cannot be ordered by EC50: under 50 nM for the first, under 50 nM for the second.

`CCOP(=O)(Cc1ccc(N(C)CC(NC(=O)OC2COC3OCCC23)C(O)CN(CC(C)C)S(=O)(=O)c2ccc(OC)cc2)cc1)OCC` (stereo not drawn) and `CCOP(=O)(COc1ccc(S(=O)(=O)N(CC(C)C)CC(O)C(Cc2ccc(N(C)C)cc2)NC(=O)OC2COC3OCCC23)cc1)OCC` (stereo not drawn) [NMe2, OEt] cannot be ordered by EC50: under 50 nM for the first, under 50 nM for the second.

`CCOP(=O)(Cc1ccc2c(c1)CCN(CC(NC(=O)OC1COC3OCCC13)C(O)CN(CC(C)C)S(=O)(=O)c1ccc(OC)cc1)C2)OCC` (stereo not drawn) and `CCOP(=O)(COc1ccc(CC(NC(=O)OC2COC3OCCC23)C(O)CN(CC(C)C)S(=O)(=O)c2ccc(N)cc2)cc1)OCC` (stereo not drawn) cannot be ordered by EC50: under 50 nM for the first, under 50 nM for the second.

`COc1ccc(S(=O)(=O)N(CC(C)C)CC(O)C(Cc2ccc(OCc3ccccc3)cc2)NC(=O)OC2COC3OCCC23)cc1` (stereo not drawn) and `CC(C)CN(CC(O)C(Cc1ccccc1)NC(=O)OC1COC2OCCC12)S(=O)(=O)c1ccc(O)cc1` (stereo not drawn) cannot be ordered by EC50: under 50 nM for the first, under 50 nM for the second.

`COc1ccc(S(=O)(=O)N(CCN2CCOCC2)CC(O)C(Cc2ccc(OCP(=O)(OCc3ccccc3)OCc3ccccc3)cc2)NC(=O)OC2COC3OCCC23)cc1` (stereo not drawn) and `COc1ccc(S(=O)(=O)N(CC2CCN(C=O)CC2)CC(O)C(Cc2ccc(OCP(=O)(OCc3ccccc3)OCc3ccccc3)cc2)NC(=O)OC2COC3OCCC23)cc1` (stereo not drawn) fall in the same range of EC50: 50 to 500 nM for the first, 50 to 500 nM for the second.

Compared with `Cc1ccc(C(=O)NC(Cc2ccc(OCP(=O)(OCc3ccccc3)OCc3ccccc3)cc2)C(O)CN(CC(C)C)S(=O)(=O)c2ccc(N)cc2)cc1O` (stereo not drawn), `CC(C)CN(CC(O)C(Cc1ccc(OCP(=O)(OCc2ccccc2)OCc2ccccc2)cc1)NC(=O)OC1COC2OCCC12)S(=O)(=O)c1ccc(N)cc1` (stereo not drawn) is lower in EC50: 50 to 500 nM for the first, under 50 nM for the second. The second is the more potent here.

`CCOP(=O)(COc1ccc(CC(NC(=O)OC2COC3OCCC23)C(O)CN(CC(C)C)S(=O)(=O)c2ccc([N+](=O)[O-])cc2)cc1)OCC` (stereo not drawn) and `CCNc1ccc(S(=O)(=O)N(CC(C)C)CC(O)C(Cc2ccc(OCP(=O)(OCC)OCC)cc2)NC(=O)OC2COC3OCCC23)cc1` (stereo not drawn) cannot be ordered by EC50: under 50 nM for the first, under 50 nM for the second.

`CCOP(=O)(COc1ccc(CC(NC(=O)OC2COC3OCCC23)C(O)CN(CC(C)C)S(=O)(=O)c2cccc(N)c2)cc1)OCC` (stereo not drawn) and `CCOP(=O)(COc1cc(S(=O)(=O)N(CC(C)C)CC(O)C(Cc2ccccc2)NC(=O)OC2COC3OCCC23)ccc1O)OCC` (stereo not drawn) fall in the same range of EC50: 50 to 500 nM for the first, 50 to 500 nM for the second.

`CC(C)CN(CC(O)C(Cc1ccc(OCP(=O)(OCc2ccccc2)OCc2ccccc2)cc1)NC(=O)OC1COC2OCCC12)S(=O)(=O)c1cccc(N)c1` (stereo not drawn) and `CC(C)CN(CC(O)C(Cc1ccc(OCP(=O)(OCc2ccccc2)OCc2ccccc2)cc1)NC(=O)OC1COC2OCCC12)S(=O)(=O)c1ccccc1` (stereo not drawn) cannot be ordered by EC50: under 50 nM for the first, under 50 nM for the second.

`CCCCOC(=O)C(C)OP(=O)(COc1ccc(CC(NC(=O)OC2COC3OCCC23)C(O)CN(CC(C)C)S(=O)(=O)c2cccc(N)c2)cc1)Oc1ccccc1` (stereo not drawn) and `CC(C)CN(CC(O)C(Cc1ccccc1)NC(=O)OC1COC2OCCC12)S(=O)(=O)c1cccc(OCP(=O)(O)O)c1` (stereo not drawn) fall in the same range of EC50: 50 to 500 nM for the first, 50 to 500 nM for the second.

`CC(C)CN(CC(O)C(Cc1ccc(OCP(=O)(OCc2ccccc2)OCc2ccccc2)cc1)NC(=O)OC1COC2OCCC12)S(=O)(=O)c1ccc(F)cc1` (stereo not drawn) and `CC(C)CN(CC(O)C(Cc1ccc(OCP(=O)(OCc2ccccc2)OCc2ccccc2)cc1)NC(=O)OC1COC2OCCC12)S(=O)(=O)c1ccc(C#N)cc1` (stereo not drawn) cannot be ordered by EC50: under 50 nM for the first, under 50 nM for the second.

`CC(C)CN(CC(O)C(Cc1ccc(OCP(=O)(OCc2ccccc2)OCc2ccccc2)cc1)NC(=O)OC1COC2OCCC12)S(=O)(=O)c1ccc(C(F)(F)F)cc1` (stereo not drawn) and `CC(C)CN(CC(O)C(Cc1ccc(OCP(=O)(OCc2ccccc2)OCc2ccccc2)cc1)NC(=O)OC1COC2OCCC12)S(=O)(=O)c1ccc(OC(F)(F)F)cc1` (stereo not drawn) cannot be ordered by EC50: under 50 nM for the first, under 50 nM for the second.

`CC(C)CN(CC(O)C(Cc1ccc(OCP(=O)(OCc2ccccc2)OCc2ccccc2)cc1)NC(=O)OC1COC2OCCC12)S(=O)(=O)N1CCN(C)CC1` (stereo not drawn) and `CC(C)CN(CC(O)C(Cc1ccc(OCP(=O)(OCc2ccccc2)OCc2ccccc2)cc1)NC(=O)OC1COC2OCCC12)C(=O)OC(C)(C)C` (stereo not drawn) fall in the same range of EC50: 50 to 500 nM for the first, 50 to 500 nM for the second.

`CC(C)CN(CC(O)C(Cc1ccccc1)NC(=O)OC1COC2OCCC12)S(=O)(=O)c1cccc(O)c1` (stereo not drawn) and `COc1ccc(S(=O)(=O)N(CC(C)C)CC(O)C(Cc2ccccc2)NC(=O)OC2COC3OCCC23)cc1O` (stereo not drawn) cannot be ordered by EC50: under 50 nM for the first, under 50 nM for the second.

`COc1ccc(S(=O)(=O)N(CC(C)C)CC(O)C(Cc2ccccc2)NC(=O)OC2COC3OCCC23)cc1OCP(=O)(O)O` (stereo not drawn) and `CCOP(=O)(COc1cc(S(=O)(=O)N(CC(C)C)CC(O)C(Cc2ccccc2)NC(=O)OC2COC3OCCC23)ccc1OC)OCC` (stereo not drawn) fall in the same range of EC50: 50 to 500 nM for the first, 50 to 500 nM for the second.

For `CC(C)CN(CC(O)C(Cc1ccc(OCCN(C)C)cc1)NC(=O)OC1COC2OCCC12)S(=O)(=O)c1ccc(OCP(=O)(O)O)cc1` (stereo not drawn) [OC2H4NMe2, OH], the EC50 was 500 to 5000 nM.

Same assay, conditions: Human immunodeficiency virus 1, IIIB, MT2, 120 h, read-out: Anti-HIV-1 Cell Culture Activity EC50

In the case of `CCCCOC(=O)CNP(=O)(COc1ccc(CC(NC(=O)OC2COC3OCCC23)C(O)CN(CC(C)C)S(=O)(=O)c2ccc(OC)cc2)cc1)NCC(=O)OCCCC` (stereo not drawn) [Compound 16b], the EC50 is reported as 17.5 ± 10.5 nM.

Same assay, conditions: Human immunodeficiency virus 1, IIIB, class symbols

`CCOC(=O)C(C)OP(=O)(COc1ccc2c(c1)CCN(CC(NC(=O)OC1COC3OCCC13)C(O)CN(CC(C)C)S(=O)(=O)c1ccc(OC)cc1)C2)Oc1ccccc1` (stereo not drawn) gave an EC50 of 50 to 500 nM.

Same assay, conditions: read-out: Anti-HIV-1 Cell Culture Activity EC50

Point of comparison: `CCCCOC(=O)C(CC(C)C)NP(=O)(COc1ccc(CC(NC(=O)OC2COC3OCCC23)C(O)CN(CC(C)C)S(=O)(=O)c2ccc(OC)cc2)cc1)NC(CC(C)C)C(=O)OCCCC` (stereo not drawn) [Example 16h], EC50 120 ± 42 nM. Against it:
- CCOC(=O)C(Cc1ccccc1)NP(=O)(COc1ccc(CC(NC(=O)OC2COC3OCCC23)C(O)CN(CC(C)C)S(=O)(=O)c2ccc(OC)cc2)cc1)NC(Cc1ccccc1)C(=O)OCC (stereo not drawn) [Example 16i] — 7.1-fold lower, 17 ± 12 nM
- CCOC(=O)C(C)OP(=O)(O)COc1ccc(CC(NC(=O)OC2COC3OCCC23)C(O)CN(CC(C)C)S(=O)(=O)c2ccc(OC)cc2)cc1 (stereo not drawn) [Met LX] — 15-fold higher, 1750 ± 354 nM
- COc1ccc(S(=O)(=O)N(CC(C)C)CC(O)C(Cc2ccc(OCP(=O)(O)NC(C)C(=O)O)cc2)NC(=O)OC2COC3OCCC23)cc1 (stereo not drawn) [Met X] — higher, > 10000 nM
